Measurements taken from patent US20230085307A1, “PYRIDAZINONE COMPOUND AND HERBICIDE” (NISSAN CHEMICAL CORPORATION, priority 2019, published 2023).

Legend:
late watergrass = experiment: Test Example 1: herbicidal activity, application before weed generation under submerged conditions (Table 16, symbol A); type: in vivo, late watergrass (Echinochloa oryzicola); conditions: 320 g/ha applied herbicide
In short: (§1)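 Submerged Wagner pots (alluvial soil, 4 cm water) sown with weed seeds and planted with 2.5-leaf rice seedlings; emulsifiable concentrate diluted in water applied to water surface on sowing day. Held in greenhouse at 25-30 °C; injury scored 0-5 by herbicidal rate after three weeks.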

Japanese bulrush = experiment: Test Example 1: herbicidal activity, application before weed generation under submerged conditions (Table 16, symbol B); type: in vivo, Japanese bulrush (Schoenoplectus juncoides); conditions: 320 g/ha applied herbicide
In short: as §1

oval-leafed pondweed = experiment: Test Example 1: herbicidal activity, application before weed generation under submerged conditions (Table 16, symbol C); type: in vivo, oval-leafed pondweed (Monochoria vaginalis); conditions: 320 g/ha applied herbicide
In short: as §1

barnyard grass [1] = experiment: Test Example 3: herbicidal effect by foliage application, Wagner pot (Table 18, symbol H); type: in vivo, barnyard grass (Echinochloa crus-galli); conditions: amount of applied herbicide 320 g/ha
In short: (§2)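 Plants were sown in alluvial soil held under 0.1–0.5 cm standing water and grown 14 days in a greenhouse at 25–30 °C. An emulsifiable formulation, water-diluted to the set dose, was then sprayed onto the foliage, and effects were scored three weeks later using previously defined criteria.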

Chinese sprangletop = experiment: Test Example 3: herbicidal effect by foliage application, Wagner pot (Table 18, symbol D); type: in vivo, chinese sprangletop (Leptochloa chinensis); conditions: amount of applied herbicide 320 g/ha
In short: as §2

rice flat sedge = experiment: Test Example 3: herbicidal effect by foliage application, Wagner pot (Table 18, symbol E); type: in vivo, rice flat sedge (Cyperus iria); conditions: amount of applied herbicide 320 g/ha
In short: as §2

southern crabgrass [2] = experiment: Test Example 4: herbicidal effect by soil treatment (Table 19, symbol F); type: in vivo, southern crabgrass (Digitaria ciliaris); conditions: amount of applied herbicide 320 g/ha
In short: (§3)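 Applied as a water-diluted emulsion, the compound was sprayed onto soil covering newly sown seeds. Evaluation came three weeks after application, in a greenhouse held at 25° C. to 30° C.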

green foxtail [3] = experiment: Test Example 4: herbicidal effect by soil treatment (Table 19, symbol G); type: in vivo, green foxtail (Setaria viridis); conditions: amount of applied herbicide 320 g/ha
In short: as §3

barnyard grass [4] = experiment: Test Example 4: herbicidal effect by soil treatment (Table 19, symbol H); type: in vivo, barnyard grass (Echinochloa crus-galli); conditions: amount of applied herbicide 320 g/ha
In short: as §3

wild oat [5] = experiment: Test Example 4: herbicidal effect by soil treatment (Table 19, symbol I); type: in vivo, wild oat (Avena fatua); conditions: amount of applied herbicide 320 g/ha
In short: as §3

blackgrass [6] = experiment: Test Example 4: herbicidal effect by soil treatment (Table 19, symbol J); type: in vivo, blackgrass (Alopecurus myosuroides); conditions: amount of applied herbicide 320 g/ha
In short: as §3

Italian ryegrass [7] = experiment: Test Example 4: herbicidal effect by soil treatment (Table 19, symbol K); type: in vivo, Italian ryegrass (Lolium multiflorum); conditions: amount of applied herbicide 320 g/ha
In short: as §3

windgrass [8] = experiment: Test Example 4: herbicidal effect by soil treatment (Table 19, symbol L); type: in vivo, windgrass (Apera spica-venti); conditions: amount of applied herbicide 320 g/ha
In short: as §3

velvetleaf [9] = experiment: Test Example 4: herbicidal effect by soil treatment (Table 19, symbol M); type: in vivo, velvetleaf (Abutilon theophrasti); conditions: amount of applied herbicide 320 g/ha
In short: as §3

redroot pigweed [10] = experiment: Test Example 4: herbicidal effect by soil treatment (Table 19, symbol N); type: in vivo, redroot pigweed (Amaranthus retroflexus); conditions: amount of applied herbicide 320 g/ha
In short: as §3

lambsquarters [11] = experiment: Test Example 4: herbicidal effect by soil treatment (Table 19, symbol O); type: in vivo, lambsquarters (Chenopodium album); conditions: amount of applied herbicide 320 g/ha
In short: as §3

chickweed [12] = experiment: Test Example 4: herbicidal effect by soil treatment (Table 19, symbol P); type: in vivo, common chickweed (Stellaria media); conditions: amount of applied herbicide 320 g/ha
In short: as §3

persian speedwell [13] = experiment: Test Example 4: herbicidal effect by soil treatment (Table 19, symbol R); type: in vivo, Persian speedwell (Veronica persica); conditions: amount of applied herbicide 320 g/ha
In short: as §3

southern crabgrass [14] = experiment: Test Example 5: herbicidal effect by foliage application, plastic box (Table 20, symbol F); type: in vivo, southern crabgrass (Digitaria ciliaris); conditions: foliage application, 320 g/ha, evaluated three weeks after application
In short: (§4)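 Sow seeds spot-wise in sterilized diluvial soil; cover with ~1.5 cm soil. Grow 14 days in greenhouse, 25° C. to 30° C. Spray foliage with emulsion diluted to predetermined amount. Rate effect after 3 weeks.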

green foxtail [15] = experiment: Test Example 5: herbicidal effect by foliage application, plastic box (Table 20, symbol G); type: in vivo, green foxtail (Setaria viridis); conditions: foliage application, 320 g/ha, evaluated three weeks after application
In short: as §4

barnyard grass [16] = experiment: Test Example 5: herbicidal effect by foliage application, plastic box (Table 20, symbol H); type: in vivo, barnyard grass (Echinochloa crus-galli); conditions: foliage application, 320 g/ha, evaluated three weeks after application
In short: as §4

wild oat [17] = experiment: Test Example 5: herbicidal effect by foliage application, plastic box (Table 20, symbol I); type: in vivo, wild oat (Avena fatua); conditions: foliage application, 320 g/ha, evaluated three weeks after application
In short: as §4

blackgrass [18] = experiment: Test Example 5: herbicidal effect by foliage application, plastic box (Table 20, symbol J); type: in vivo, blackgrass (Alopecurus myosuroides); conditions: foliage application, 320 g/ha, evaluated three weeks after application
In short: as §4

Italian ryegrass [19] = experiment: Test Example 5: herbicidal effect by foliage application, plastic box (Table 20, symbol K); type: in vivo, Italian ryegrass (Lolium multiflorum); conditions: foliage application, 320 g/ha, evaluated three weeks after application
In short: as §4

windgrass [20] = experiment: Test Example 5: herbicidal effect by foliage application, plastic box (Table 20, symbol L); type: in vivo, windgrass (Apera spica-venti); conditions: foliage application, 320 g/ha, evaluated three weeks after application
In short: as §4

velvetleaf [21] = experiment: Test Example 5: herbicidal effect by foliage application, plastic box (Table 20, symbol M); type: in vivo, velvetleaf (Abutilon theophrasti); conditions: foliage application, 320 g/ha, evaluated three weeks after application
In short: as §4

redroot pigweed [22] = experiment: Test Example 5: herbicidal effect by foliage application, plastic box (Table 20, symbol N); type: in vivo, redroot pigweed (Amaranthus retroflexus); conditions: foliage application, 320 g/ha, evaluated three weeks after application
In short: as §4

lambsquarters [23] = experiment: Test Example 5: herbicidal effect by foliage application, plastic box (Table 20, symbol O); type: in vivo, lambsquarters (Chenopodium album); conditions: foliage application, 320 g/ha, evaluated three weeks after application
In short: as §4

chickweed [24] = experiment: Test Example 5: herbicidal effect by foliage application, plastic box (Table 20, symbol P); type: in vivo, common chickweed (Stellaria media); conditions: foliage application, 320 g/ha, evaluated three weeks after application
In short: as §4

persian speedwell [25] = experiment: Test Example 5: herbicidal effect by foliage application, plastic box (Table 20, symbol R); type: in vivo, Persian speedwell (Veronica persica); conditions: foliage application, 320 g/ha, evaluated three weeks after application
In short: as §4

## Cc1nn(C)c(=O)c(-c2c(-c3ccccc3Cl)sc3ccc(F)cc23)c1O [2-203]
Late watergrass
  Herbicidal effect on A: late watergrass (grade 0-5): 2 (Herbicidal rate of 20% or more and less than 40%)
Japanese bulrush
  Herbicidal effect on B: Japanese bulrush (grade 0-5): 0 (Herbicidal rate of 5% or less (almost no effect))
oval-leafed pondweed
  Herbicidal effect on C: oval-leafed pondweed (grade 0-5): 0 (Herbicidal rate of 5% or less (almost no effect))
Barnyard grass [1]
  herbicidal effect on H: barnyard grass: 4 (Herbicidal rate of 70% or more and less than 90%)
Chinese sprangletop
  herbicidal effect on D: Chinese sprangletop: 4 (Herbicidal rate of 70% or more and less than 90%)
Rice flat sedge
  herbicidal effect on E: rice flat sedge: 5 (Herbicidal rate of 90% or more (almost completely withered))
Southern crabgrass [2]
  F: southern crabgrass, herbicidal effect rating: 0 (Herbicidal rate of 5% or less (almost no effect))
Green foxtail [3]
  G: green foxtail, herbicidal effect rating: 0 (Herbicidal rate of 5% or less (almost no effect))
Barnyard grass [4]
  H: barnyard grass, herbicidal effect rating: 0 (Herbicidal rate of 5% or less (almost no effect))
Wild oat [5]
  I: wild oat, herbicidal effect rating: 0 (Herbicidal rate of 5% or less (almost no effect))
Blackgrass [6]
  J: blackgrass, herbicidal effect rating: 0 (Herbicidal rate of 5% or less (almost no effect))
Italian ryegrass [7]
  K: Italian ryegrass, herbicidal effect rating: 0 (Herbicidal rate of 5% or less (almost no effect))
Windgrass [8]
  L: windgrass, herbicidal effect rating: 0 (Herbicidal rate of 5% or less (almost no effect))
Velvetleaf [9]
  M: velvetleaf, herbicidal effect rating: 1 (Herbicidal rate of 5% or more and less than 20%)
Redroot pigweed [10]
  N: redroot pigweed, herbicidal effect rating: 2 (Herbicidal rate of 20% or more and less than 40%)
Lambsquarters [11]
  O: lambsquarters, herbicidal effect rating: 3 (Herbicidal rate of 40% or more and less than 70%)
Chickweed [12]
  P: chickweed, herbicidal effect rating: 3 (Herbicidal rate of 40% or more and less than 70%)
Persian speedwell [13]
  R: persian speedwell, herbicidal effect rating: 0 (Herbicidal rate of 5% or less (almost no effect))
Southern crabgrass [14]
  herbicidal effect on F: southern crabgrass (criteria 0-5): 0 (Herbicidal rate of 5% or less (almost no effect))
Green foxtail [15]
  herbicidal effect on G: green foxtail (criteria 0-5): 4 (Herbicidal rate of 70% or more and less than 90%)
Barnyard grass [16]
  herbicidal effect on H: barnyard grass (criteria 0-5): 2 (Herbicidal rate of 20% or more and less than 40%)
Wild oat [17]
  herbicidal effect on I: wild oat (criteria 0-5): 0 (Herbicidal rate of 5% or less (almost no effect))
Blackgrass [18]
  herbicidal effect on J: blackgrass (criteria 0-5): 0 (Herbicidal rate of 5% or less (almost no effect))
Italian ryegrass [19]
  herbicidal effect on K: Italian ryegrass (criteria 0-5): 2 (Herbicidal rate of 20% or more and less than 40%)
Windgrass [20]
  herbicidal effect on L: windgrass (criteria 0-5): 4 (Herbicidal rate of 70% or more and less than 90%)
Velvetleaf [21]
  herbicidal effect on M: velvetleaf (criteria 0-5): 4 (Herbicidal rate of 70% or more and less than 90%)
Redroot pigweed [22]
  herbicidal effect on N: redroot pigweed (criteria 0-5): 3 (Herbicidal rate of 40% or more and less than 70%)
Lambsquarters [23]
  herbicidal effect on O: lambsquarters (criteria 0-5): 3 (Herbicidal rate of 40% or more and less than 70%)
Chickweed [24]
  herbicidal effect on P: chickweed (criteria 0-5): 5 (Herbicidal rate of 90% or more (almost completely withered))
Persian speedwell [25]
  herbicidal effect on R: persian speedwell (criteria 0-5): 4 (Herbicidal rate of 70% or more and less than 90%)
